Measurements reported in patent publication US9193729B2, “Inhibiting transient receptor potential ion channel TRPA1” (Cubist Pharmaceuticals, Inc., priority 2011, dated 2015).
Entries after “also recorded” stand apart in the source; their conditions may differ.

Assays:
[1] = tested on: incisional spontaneous pain; test: Surgical incision pain model (Brennan Surgical Model); format: in vivo, rat; conditions: 60 mg/kg i.p. vs ketoprofen (2 doses of 2 mg/kg intraperitoneally)
Protocol: The compound of Formula (Ia), the comparator compound of Formula (III) and ketoprofen were tested by the incisional pain test method reported in Brennan et al., Pain, 1996 March; 64(3):493-501 incorporated herein by reference in its entirety. Briefly, in rats under anesthesia, a 1 cm incision through skin and underlying muscle is made in the bottom of one hind paw. The incision is sutured closed and the animals allowed to regain consciousness in their home cage before being placed on a special mesh rack. The blinded observer subjectively assesses and records each animal's pain score every 5 minutes for 1 hour. Pain scores are assigned as follows: Score of 0=Injured paw is held flat on the rack and is bearing weight (=uninjured paw); 1=Injured paw is slightly lifted from the rack but is bearing some weight; 2=Injured paw is flat but is bearing no weight, or heel is lifted high off the rack with only toes touching. At the end of each hour, pain scores are added up and the final score recorded ([…]). In a typical study the efficacy of the drug treatment is determined by comparing the cumulative guarding scores at 1-2 and 3-4 hours following surgical injury to the cumulative guarding scores of animals that received the vehicle.

hNav1.2 = hNav1.2 (Homo sapiens, UniProt Q99250); test: Patch clamp selectivity, hNav1.2; format: cell-based; conditions: hNav1.2 vs TRPA1
Protocol: (§1) Data for TRPA1 inhibition and the selectivity of TRPA1 inhibition was obtained by this method for the compound of Formula (Ia) and included in Table 1 and Table 2. All currents were recorded in whole-cell configuration using EPC-9 and EPC-10 amplifiers and Patchmaster software (HEKA). […] The standard pipette solution consisted of 140 mM CsAsp, 10 mM EGTA, 10 mM HEPES, 2.27 mM MgCl2, 1.91 mM CaCl2, 4 mM MgATP, and 0.1-0.3 mM Na2GTP, with pH adjusted to 7.2 with CsOH. In addition, a solution containing 145 mM CsCl, 10 mM HEPES, 10 mM EGTA and 1 mM MgCl2 (pH 7.2 adjusted with CsOH) can be used. The standard bath solution contained 150 mM NaCl, 10 mM HEPES, 10 mM glucose, 4.5 mM KCl, 1 mM EGTA, 3 mM MgCl2, with pH adjusted to 7.4 with NaOH. In some instances, 2 mM CaCl2 was added in place of EGTA and the concentration of MgCl2 was reduced to 1 mM.
(§2) Data were collected either by continuous recordings at −60 mV or by applying voltage ramps from a holding potential of 0 mV every 4 s. […] Inward and outward currents were analyzed from the ramps at −80 and 80 mV, respectively. […]
(§3) Solutions were switched using a gravity-fed continuous focal perfusion system. […] Temperatures were confirmed using a thermistor (Warner Instruments, TA-29), with temperatures at the recorded cell estimated to be within +/−2° C. of those reported. […]

[2] = tested on: serum biomarkers of hepatotoxicity; test: Hepatotoxicity serum biomarker study in dogs, oral dose; format: in vivo, dog; conditions: dogs, 50 mg/kg PO
Protocol: The compound of Formula (Ia) was orally dosed to […] at dose levels of 5, 15 or 50 mg/kg using 30% Sulfobutylether β-cyclodextrin as the vehicle for assessment of safety as measured via serum chemistry biomarkers of hepatotoxicity or bile duct injury FIG. 5A, showing measurements of alanine aminotranferease [ALT], aspartate aminotranferease [AST], alkaline phosphatase [ALP] and gamma-glutamyl transferase [GGT] in the dogs at each dose level (each bar represents a measurement from 1 dog in the study). […] For example, the ALT levels were elevated up to about 60-fold in male dogs and up to about 130-fold in female beagle dogs following a single PO dose of 50 mg/kg.

hTRPV4 = hTRPV4 (Homo sapiens, UniProt Q9HBA0); test: Patch clamp selectivity, hTRPV4 (block); format: cell-based; conditions: hTRPV4 vs TRPA1
Protocol: as §1, §2, §3

female rats = test: 7-day i.p. repeat dose screening toxicity study; format: in vivo, rat; conditions: female rats, 50 mg/kg/day i.p. for 7 consecutive days
Protocol: The compound of Formula (Ia) was evaluated in a 7-day repeat dose screening toxicity study in female rats. In order to maximize systemic exposure, rats were administered compound of Formula (Ia) i.p. at 50 mg/kg/day for 7 consecutive days, to obtain the results shown in FIG. 6. Clinical chemistry parameters were evaluated on Days 3 and 8. Histopathology was performed on select organs including the liver, kidney, spleen, and lung.

hNav1.2, sequence (Q99250 whole entry): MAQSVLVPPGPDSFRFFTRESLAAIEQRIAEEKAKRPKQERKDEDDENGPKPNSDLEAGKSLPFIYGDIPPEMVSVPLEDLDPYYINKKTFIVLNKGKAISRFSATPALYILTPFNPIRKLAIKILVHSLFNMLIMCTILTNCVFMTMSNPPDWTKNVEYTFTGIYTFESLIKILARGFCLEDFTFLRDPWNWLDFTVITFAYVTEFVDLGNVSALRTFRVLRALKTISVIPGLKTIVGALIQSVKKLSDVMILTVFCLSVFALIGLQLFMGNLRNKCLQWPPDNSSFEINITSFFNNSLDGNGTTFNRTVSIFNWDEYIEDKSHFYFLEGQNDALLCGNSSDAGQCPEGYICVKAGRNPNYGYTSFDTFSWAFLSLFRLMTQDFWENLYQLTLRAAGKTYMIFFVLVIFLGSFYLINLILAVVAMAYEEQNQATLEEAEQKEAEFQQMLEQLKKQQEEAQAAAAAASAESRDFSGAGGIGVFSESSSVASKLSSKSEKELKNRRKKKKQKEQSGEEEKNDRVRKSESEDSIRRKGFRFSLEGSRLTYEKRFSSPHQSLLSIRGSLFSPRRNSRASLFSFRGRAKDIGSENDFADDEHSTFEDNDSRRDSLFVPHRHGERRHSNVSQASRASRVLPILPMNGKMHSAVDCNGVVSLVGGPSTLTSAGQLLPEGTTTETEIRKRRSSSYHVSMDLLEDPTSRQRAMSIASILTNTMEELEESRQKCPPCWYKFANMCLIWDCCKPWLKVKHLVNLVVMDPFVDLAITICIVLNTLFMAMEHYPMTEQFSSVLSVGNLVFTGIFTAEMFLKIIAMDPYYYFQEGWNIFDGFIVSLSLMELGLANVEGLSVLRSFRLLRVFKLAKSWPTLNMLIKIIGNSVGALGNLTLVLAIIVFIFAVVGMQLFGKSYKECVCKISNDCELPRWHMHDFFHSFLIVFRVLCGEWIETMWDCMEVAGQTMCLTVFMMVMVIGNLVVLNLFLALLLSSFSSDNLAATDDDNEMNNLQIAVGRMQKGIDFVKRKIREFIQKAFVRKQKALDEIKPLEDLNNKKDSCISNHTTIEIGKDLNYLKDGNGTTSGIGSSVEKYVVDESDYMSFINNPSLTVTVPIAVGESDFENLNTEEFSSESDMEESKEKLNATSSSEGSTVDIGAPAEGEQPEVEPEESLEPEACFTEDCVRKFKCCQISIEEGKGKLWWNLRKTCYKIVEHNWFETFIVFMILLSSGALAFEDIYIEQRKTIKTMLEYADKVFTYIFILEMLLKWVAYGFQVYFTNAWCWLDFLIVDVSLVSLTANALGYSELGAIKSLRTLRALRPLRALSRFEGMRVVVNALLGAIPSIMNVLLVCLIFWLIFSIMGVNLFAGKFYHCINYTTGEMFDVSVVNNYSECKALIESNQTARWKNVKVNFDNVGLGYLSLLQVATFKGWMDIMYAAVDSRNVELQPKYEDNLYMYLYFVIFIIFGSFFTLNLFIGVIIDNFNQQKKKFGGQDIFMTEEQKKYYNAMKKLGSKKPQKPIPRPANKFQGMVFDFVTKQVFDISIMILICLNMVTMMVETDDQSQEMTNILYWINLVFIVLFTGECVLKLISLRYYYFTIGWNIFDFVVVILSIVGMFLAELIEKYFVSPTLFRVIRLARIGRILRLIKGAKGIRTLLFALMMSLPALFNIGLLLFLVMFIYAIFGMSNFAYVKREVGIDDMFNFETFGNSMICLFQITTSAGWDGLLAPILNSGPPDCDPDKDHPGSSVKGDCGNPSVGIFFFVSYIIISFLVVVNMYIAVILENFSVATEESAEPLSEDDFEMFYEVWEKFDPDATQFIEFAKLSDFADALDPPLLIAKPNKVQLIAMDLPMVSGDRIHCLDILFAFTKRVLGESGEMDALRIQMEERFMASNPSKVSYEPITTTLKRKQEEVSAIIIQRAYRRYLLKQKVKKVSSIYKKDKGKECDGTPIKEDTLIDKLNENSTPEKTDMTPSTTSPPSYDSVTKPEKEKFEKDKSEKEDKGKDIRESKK
hTRPV4, sequence (Q9HBA0 whole entry): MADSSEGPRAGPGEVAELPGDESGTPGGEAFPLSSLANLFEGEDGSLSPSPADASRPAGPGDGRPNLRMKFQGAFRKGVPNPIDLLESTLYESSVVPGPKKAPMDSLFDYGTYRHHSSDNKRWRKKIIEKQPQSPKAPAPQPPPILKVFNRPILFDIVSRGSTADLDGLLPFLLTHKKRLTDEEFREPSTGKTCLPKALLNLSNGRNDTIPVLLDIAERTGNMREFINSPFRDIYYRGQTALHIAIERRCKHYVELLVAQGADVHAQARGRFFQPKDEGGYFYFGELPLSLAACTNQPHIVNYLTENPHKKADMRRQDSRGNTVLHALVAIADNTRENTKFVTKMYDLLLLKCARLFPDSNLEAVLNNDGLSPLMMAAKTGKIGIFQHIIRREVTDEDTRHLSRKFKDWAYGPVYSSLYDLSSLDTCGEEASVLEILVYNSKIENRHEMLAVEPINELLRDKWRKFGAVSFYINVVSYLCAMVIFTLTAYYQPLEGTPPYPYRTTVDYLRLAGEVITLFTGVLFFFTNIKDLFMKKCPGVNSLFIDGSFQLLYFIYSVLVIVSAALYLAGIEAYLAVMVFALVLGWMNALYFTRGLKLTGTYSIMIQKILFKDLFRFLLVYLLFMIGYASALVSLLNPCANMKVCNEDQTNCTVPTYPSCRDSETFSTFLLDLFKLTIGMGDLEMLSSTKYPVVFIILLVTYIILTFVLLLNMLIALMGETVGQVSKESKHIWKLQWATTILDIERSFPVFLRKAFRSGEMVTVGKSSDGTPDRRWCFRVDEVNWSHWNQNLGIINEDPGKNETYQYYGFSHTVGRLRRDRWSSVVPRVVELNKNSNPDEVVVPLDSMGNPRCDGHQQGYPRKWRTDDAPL

SMILES: C[C@H]1CCCN1c1ncc(-c2cccc(NC(=O)Cn3cnc4c3c(=O)n(C)c(=O)n4C)n2)cn1 [Formula (Ia)]
- reduction of spontaneous pain compared with ketoprofen [1]: equivalent to ketoprofen; also recorded: better than ketoprofen
- Fold Selectivity Compared to TRPA1 (hNav1.2): >100 Fold
- serum biomarkers of hepatotoxicity (ALT, AST, ALP, GGT) [2]: did not elevate serum biomarkers of hepatotoxicity or acute phase response
- Fold Selectivity Compared to TRPA1 (hTRPV4): ~170 Fold
- histopathology of liver, kidney, spleen, lung (female rats; 50 mg/kg/day): No histopathological findings in the liver, kidney, spleen, or lung; also recorded: no adverse effects
- clinical signs, body weight, clinical chemistry parameters (female rats; Days 3 and 8): no adverse clinical signs, changes in body weight, or changes in clinical chemistry parameters were noted
